Several values for one entry are separate records, joined by “and”; a condition that tells them apart may be missing. Equal entries are not always repeated.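 Following 48 hours of exposure in 96-well plates, responses at five concentrations were used to interpolate endpoints linearly. Abbreviation: GI50, concentration required for 50% inhibition of growth. TGI marks complete inhibition of growth.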
Tests used:
Assay in all cases: DTP human tumour cell line panel, 48 h
[1] = test system: SK-MEL-5 melanoma
[2] = test system: SK-MEL-28 melanoma
[3] = test system: OVCAR-4 ovarian
[4] = test system: 786-0 renal
[5] = test system: U251 CNS
[6] = test system: NCI/ADR-RES ovarian
[7] = test system: SF-539 CNS
[8] = test system: UO-31 renal
[9] = test system: SNB-19 CNS
[10] = test system: NCI-H23 lung

Row | SMILES | GI50 [1] | TGI [1] | GI50 [2] | TGI [2] [µM] | GI50 [3] | TGI [3] [µM] | GI50 [4] | TGI [4] [µM] | GI50 [5] | TGI [5] [µM] | GI50 [6] | TGI [6] [µM] | GI50 [7] | TGI [7] | GI50 [8] | TGI [8] [µM] | GI50 [9] | TGI [9] [µM] | GI50 [10] | TGI [10] [µM]
1 | O=C(CCN1CCCC1)Nc1ccc2c(Nc3ccccc3)c3ccccc3nc2c1 | 1380 nM | 2.71 µM | 1.6 µM | 3.06 | 0.468 µM | 2.13 | 0.467 µM | 1.93 | 0.429 µM | 2.19 | 1.84 µM | 7.22 | 1.14 µM | 2.44 µM | 0.808 µM | 2.38 | 0.432 µM | 2.92 | 0.383 µM | 2
2 | O=C(O)C1C(C(=O)O)C2(Cl)C(Cl)=C(Cl)C1(Cl)C2(Cl)Cl.[Cd] (stereo not drawn) | 1370 nM | 5.63 µM | 24.1 µM | 54.7 | 14.9 µM | 37.5 | 8.59 µM | 22 | 11.2 µM | 24.9 | 28.6 µM | 80.3 | 3.66 µM | 11.7 µM | 20.1 µM | 39.3 | 40 µM | > 100 | 2.62 µM | 9.17
3 | CC[C@H](C)[C@H](NC(=O)[C@H]1CCCCN1C)C(=O)N(C)[C@H](C[C@@H](OC(C)=O)c1nc(C(=O)N[C@@H](Cc2ccccc2)C[C@H](C)C(=O)OC)cs1)C(C)C | 0.0909 nM and < 2.5 nM | 0.00455 µM and < 0.0025 µM | > 25 µM | > 25 | 0.00479 µM and 0.0025 µM | > 25 | 0.000366 µM and 0.0025 µM | 14.8 | 0.000376 µM and 0.0025 µM | > 25 | 0.00772 µM | – | 0.000482 µM and < 0.0025 µM | 0.00437 µM and < 0.0025 µM | 0.0032 µM and 0.0025 µM | > 25 | 0.000431 µM and 0.0025 µM | > 25 | 0.00071 µM and 0.0025 µM | > 25
4 | Nc1ncnc2c1c(-c1ccc(Oc3ccccc3)cc1)nn2C[C@@H]1SSC[C@@H]1O | 250 nM | 0.684 µM | 0.0824 µM | 0.484 | 1.33 µM | 14 | 2.75 µM | 11.1 | 0.853 µM | 8.71 | 1.05 µM | 7.8 | 1.63 µM | 26.3 µM | 1.54 µM | 5.63 | 1.03 µM | 14 | 0.333 µM | 7.93
5 | CC(C)(C)[Si](C)(C)OCC1OC(n2cnc3c(N)ncnc32)C(O)C1O (stereo not drawn) | – | 89.5 µM | – | > 100 | – | > 100 | – | > 100 | – | > 100 | – | > 100 | – | > 100 µM | – | > 100 | – | > 100 | – | > 100
6 | CN(C)C(=O)SC1=C(c2c(Cl)cccc2Cl)C(=O)c2ccccc21 | 7160 nM | 19.2 µM | 3.16 µM | 8.89 | 4.24 µM | 10.8 | 10.3 µM | 22.4 | 8.33 µM | 23 | 9.42 µM | 25.8 | 9.01 µM | 22.8 µM | 2.18 µM | 6.51 | 15.8 µM | 29.4 | 7.14 µM | 19
7 | c1ccc(CC(NCCNC(Cc2ccccc2)c2ccccc2)c2ccccc2)cc1 (stereo not drawn) | 271 nM | 0.779 µM | 1.22 µM | 2.8 | 0.415 µM | 2.02 | 0.383 µM | 1.59 | 0.406 µM | 1.43 | 0.643 µM | 2.2 | 0.451 µM | 1.64 µM | 0.415 µM | 1.96 | 0.964 µM | 4.15 | 0.589 µM | 2.55
8 | COc1ccc2[nH]c(-c3ccccc3)cc2c1 | 86600 nM | > 100 µM | > 100 µM | > 100 | 92.3 µM | > 100 | > 100 µM | > 100 | > 100 µM | > 100 | > 100 µM | > 100 | > 100 µM | > 100 µM | > 100 µM | > 100 | > 100 µM | > 100 | 97.9 µM | > 100
9 | O=C(Nc1cc(S(=O)(=O)c2ccc(Cl)cc2)ccc1Cl)c1cc(I)cc(I)c1O | 14900 nM | 28.3 µM | 9.38 µM | 24.6 | 17.2 µM | 33.5 | 15.6 µM | 30 | 15.3 µM | 30.8 | 18.7 µM | 44.6 | 18.6 µM | 38.2 µM | 20.9 µM | 38.8 | 14.9 µM | 29.3 | 16.5 µM | 33.9
10 | CC(=O)Oc1ccc(C2(c3ccc(OC(C)=O)cc3)C(=O)Nc3ccccc32)cc1 | 24600 nM and 36100 nM | > 100 µM | 35.1 µM and 34.2 µM | > 100 | 0.0347 µM and 0.0389 µM | 1.42 | 42.6 µM and 46.6 µM | > 100 | 33.6 µM and 41.4 µM | > 100 | 1.16 µM and 1.8 µM | > 100 | 26.3 µM and 50.2 µM | > 100 µM | 24 µM and 27.5 µM | > 100 | 42.9 µM and > 61.1 µM | > 100 | 9.3 µM and 19.3 µM | > 100
11 | COc1ccc(-c2cc(/C=C/C(=O)c3cc(OC)c(OC)c(OC)c3)[nH]n2)cc1OC | 1580 nM | 2.93 µM | 1.92 µM | 4.41 | 1.62 µM | 7.17 | 1.5 µM | 2.9 | 1.24 µM | 2.53 | 2.69 µM | 37 | 0.309 µM | 1.48 µM | 1.27 µM | 2.59 | 1.8 µM | 5.32 | 1.97 µM | 4.91
12 | COc1cc2nnn3c4ncccc4c(N=O)c3c2cc1OC | 14600 nM | 34 µM | 9.1 µM | > 100 | 3.23 µM | > 100 | 0.391 µM | 2.48 | 0.777 µM | > 39.9 | 0.91 µM | > 33.6 | 2.75 µM | 9.15 µM | 0.89 µM | > 20.8 | 9.75 µM | > 74 | 6.4 µM | 27.9
13 | O=c1oc2ccc(F)cc2c(=O)n1-c1ccc(Br)cc1F | 267 nM | 0.737 µM | 0.373 µM | 2.48 | 1.27 µM | > 42.8 | 2.79 µM | 9.42 | 0.786 µM | > 100 | 0.85 µM | 8.9 | 0.45 µM | 6.35 µM | 0.194 µM | 1.7 | 0.45 µM | > 80.8 | 0.481 µM | –
